Source: patent publication US20020049185A1, “Malonic acid based matrix metalloproteinase inhibitors” (ROCHE DIAGNOSTICS GMBH, priority 1994, published 2002)
Residues, ends and D or L forms follow the SMILES beside them. *: point of attachment. NHOH = ON*

Columns and labels:
collagenase = collagenase (Homo sapiens, UniProt P22894); assay: Affinity for collagenase (statement in text, HNC complex); assay type: binding
[1] = molecular target: T1, catalytic domain (Met80-Gly242) of human neutrophil collagenase (Homo sapiens, UniProt P22894); assay: Enzyme assay: inhibition of cleavage of a fluorogenic substrate by the HNC catalytic domain; assay type: biochemical; conditions: HNC (MMP-8) catalytic domain, 25° C., substrate DNP-Pro-Leu-Gly-Leu-Trp-Ala-D-Arg-NH2
T1 construct: 8 nM catalytic domain (Met80-Gly242) of human neutrophil collagenase; made in house; host or cells: E. coli
T1 sequence (P22894 100-262): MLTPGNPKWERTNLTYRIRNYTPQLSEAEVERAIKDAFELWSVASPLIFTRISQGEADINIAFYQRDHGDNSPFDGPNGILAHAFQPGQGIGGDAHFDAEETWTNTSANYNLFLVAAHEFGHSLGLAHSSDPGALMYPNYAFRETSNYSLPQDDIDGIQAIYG
Protocol: In order to determine the inhibition of MMPs, for example HNC, the catalytic domain (isolation and purification see example 1) is incubated with inhibitors having various concentrations. Subsequently, the initial reaction rate in the conversion of a standard substrate is measured in a manner analogous to F. Grams et al. (1993)^51.
The results are evaluated by plotting the reciprocal reaction rate against the concentration of the inhibitor. The inhibition constant (Ki) is obtained as the negative section of the abscissis by the graphical method according to M. Dixon (1953)^28.
The synthetic collagenase substrate is a heptapeptide which is coupled, at the […], with DNP (dinitrophenol). Said DNP residue quenches by steric hindrance the fluorescence of the adjacent tryptophane of the heptapeptide. After cleavage of a tripeptide which includes the DNP group, the tryptophane fluorescence increases. The proteolytic cleavage of the substrate therefore can be measured by the fluorescence value.
The assay was performed at 25° C. in a freshly prepared 50 mM Tris buffer (pH 8.0) treated with dithiozone to remove traces of heavy metals. 4 mM CaCl2 was added and the buffer saturated wtih argon. Stock solutions of adamalysin II were prepared by centrifugation of the protein from an ammonium sulfate suspension and subsequent dissolution in the assay buffer Stock solutions of collagenase were diluted with the assay buffer. Enzyme concentrations were determined by uv measurements (ε280=2.8·10^4 M^−1 cm^−1, ε288·2.2 10^4 M^−1 cm^−1) and the stock solutions were stored in the cold. This solution was diluted 1 100 to obtain the final 16 nM assay concentration. The fluorogenic substrate DNP-ProLeu-Gly-Leu-Trp-Ala-D-Arg-NH2 with a Km of 52 μM was used at a concentration of 21.4 μM, for the Ki determination a 12.8 μM concentration has also been used. Substrate fluorescence was measured at an excitation and emission wavelength of λ=[…], respectively, on a spectrofluorimeter (Perkin Elmer, Model 650-40) equipped with a thermostated cell holder. Substrate hydrolysis was monitored for 10 min. immediately after adding the enzyme. All reactions were performed at least in triplicate. The Ki values of the inhibitors were calculated from the intersection point of the straight lines obtained by the plots of vo/vi vs. [concentration of inhibitor], whereas IC50 values were calculated from plots of vi/vo [concentration of inhibitor] by non-linear regression with simple robust weighting.
50 mM Tris/HCl pH 7.6 (Tris=Tris-(hydroxymethyl)-aminomethan)
8 nM catalytic domain (Met80-Gly242) of human neutrophil collagenase
10 microM DNP-Pro-Leu-Gly-Leu-Trp-Ala-D-Arg-NH2
A solution of the enzyme and inhibitor in assay buffer (25° C.) was prepared. The reaction was started directly by giving the substrate into the solution. The cleavage of the flourogenic substrate was followed by flourescence spectroscopy with an excitation and emision wavelength of 280 and 350 nm, respectively. The IC50 value was calculated as the inhibitor concentration, which is necessary to decrease the velocity of the reaction to the half in comparison to the reaction without inhibitor.

MMPs = assay: Inhibition of MMPs; assay type: biochemical

Sequence of collagenase (P22894 101-467): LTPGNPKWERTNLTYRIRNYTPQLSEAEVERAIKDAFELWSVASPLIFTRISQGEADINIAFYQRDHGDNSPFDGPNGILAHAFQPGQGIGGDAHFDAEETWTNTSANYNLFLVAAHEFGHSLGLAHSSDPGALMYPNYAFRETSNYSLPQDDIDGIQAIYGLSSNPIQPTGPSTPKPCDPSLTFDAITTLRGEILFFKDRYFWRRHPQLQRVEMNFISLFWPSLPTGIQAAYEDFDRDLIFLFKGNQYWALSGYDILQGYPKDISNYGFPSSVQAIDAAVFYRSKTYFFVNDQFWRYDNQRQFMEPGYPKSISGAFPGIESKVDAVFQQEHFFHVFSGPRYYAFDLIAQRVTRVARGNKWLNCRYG

| SMILES | affinity for collagenase (in words) (collagenase) | IC50 [1] | inhibition of MMPs (in words) (MMPs) |
| --- | --- | --- | --- |
| CC(C)C[C@H](NC(=O)[C@@H]1CCCN1)C(=O)NCC(=O)NO [PLG-NHOH, L-prolyl-L-leucyl-glycin-hydroxamate] (H-Pro-Leu-Gly-{NHOH}) | relatively weak | – | – |
| CC(C)CC(C(=O)NO)C(=O)NC(C)C(=O)NCc1ccccc1 (mixture of isomers) [ER014, HONH-iBM-Ala-NHBn] | – | 58 µM | – |
| CC(C)CC(C(=O)NO)C(=O)NC(CO)C(=O)NCc1ccccc1 (mixture of isomers) [ER028, HONH-iBM-Ser-NHBn] | – | 40 µM | – |
| Cc1ccc(CCNC(=O)C(CCc2ccccc2)NC(=O)C(CC(C)C)C(=O)NO)cc1 (mixture of isomers) [ER070, HONH-iBM-Homophe-NHCH2CH2Ph(p-Me)] | – | 1.6 µM | – |
| CC(C)CC(C(=O)NO)C(=O)NC(CO)C(=O)NCC(=O)NCc1ccccc1 (mixture of isomers) [ER059, HONH-iBM-Ser-Gly-NHBn] | – | 61 µM | – |
| CC(C)CC(C(=O)NO)C(=O)NC(CC(N)=O)C(=O)NCc1cccc(N)c1 (mixture of isomers) [ER031, HONH-iBM-Asn-NHBn(m-NH2)] | – | 30 µM | – |
| CC(C)CC(C(=O)NO)C(=O)NC(CC(N)=O)C(=O)NCc1ccccc1 (mixture of isomers) [ER017, HONH-iBM-Asn-NHBn] | – | 63 µM | – |
| CC(C)CC(C(=O)NO)C(=O)N[C@@H](C)C(=O)NCC(N)=O (stereo partly drawn) [ER029, HONH-2-isobutylmalonyl-L-alanyl glycinamide, reference compound] | – | 139 µM | very poorly |
| CC(C)CC(C(=O)NO)C(=O)NC(Cc1ccccc1)C(=O)NCc1ccccc1 (mixture of isomers) [ER074, HONH-iBM-Phe-NHBn] | – | 29 µM | – |
